# Measured values as given in patent US11291235B2, “Phloretin” (Firmenich SA, priority 2016, dated 2022).
# Key:
# Format in all cases: in vivo
# [1] = Phloretin as taste modifier in foods and beverages containing steviol glycosides and rebaudioside
# [2] = Tasting of phloretin in water or model beverage solution of water and citric acid; settings: tasted in water or in water and citric acid
# [3] = Sensory evaluation of tropical flavored soft drink containing 7% sucrose, with and without phloretin
# [4] = Sensory assessment of pasteurized sweet water solution of pea protein isolate, with and without phloretin; settings: 30 ppm phloretin, eight panelists, 0 to 5 scale, Duncan test
# Procedure: To evaluate sensory effect of phloretin on pea protein solution Evaluation in blind and randomized conditions of pasteurized sweet water solution of pea protein isolate • 1. Control: no phloretin added • 2. Test: 30 ppm phloretin added (via a presolution 10% in propylene glycol) Weigh and premix protein with sugar (600 gram preparation) Dispersion/solubilisation of protein-sugar-water to obtain a “mother mixture”: disperse mix protein/sugar in water (becher—deionized water 40° C.—Mini Ultra-Turrax T18—Speed 2—time:7 minutes). The same “mother mixture” for both the Control and Test trials. Add phloretin (fresh dilution 10% in propylene Glycol) in Test trial. Split each trials in 2 glass bottles: 100 g for pre-evaluation and generation of sensory attributes—200 gram for sensory assessment Pasteurisation (water bach—95° C.—30 minutes). Cooling bottles at room temperature—Storage in fridge until tasting. Perform Sensory assessment at room temperature. Eight panelists were asked to rate intensity of sensory attributes using a 0 to 5 structured scale (from 0 ‘not perceptible’ to 5 ‘strong intensity’). Sensory descriptors were selected to assess taste, tactile and aromatic stimuli Data treatment was run with XLSTAT software (Duncan mean comparison test). Sensory attributes were selected during a preliminary series of applications evaluated in a free-description mode Symbols for significant differences * at 95% (See FIG. 5). […] Other sensory attributes related to taste (“Sweetness”, “Bitterness”), tactile (mouthcoating) or aromatic stimuli (“cereal”) were unmodified.
# [5] = Sensory evaluation of tropical juice drink sweetened with sucrose (5%) and Stevia (25 ppm), with and without phloretin
# [6] = Sensory evaluation of strawberry yogurt sweetened with 250 ppm Stevia (SG95), with and without phloretin
# [7] = Sensory evaluation of pomegranate juice (POM Brand) sweetened with 150 ppm SG95, with and without phloretin
# [8] = 30 ppm Phloretin, tropical soft drink with 7% sucrose, in words
# [9] = sensory score, 7% Sucrose + 30 ppm Phloretin, tropical soft drink
# [10] = 30 ppm Phloretin, sugar (5%) and Stevia (25 ppm) tropical juice drink, in words
# [11] = sensory score, Sucrose (5%) and Stevia (25 ppm) control + Phloretin @ 30 ppm, tropical juice drink
# [12] = 20 ppm Phloretin, strawberry yogurt with 250 ppm Stevia, in words
# [13] = sensory score, Stevia @250 ppm + 20 ppm Phloretin, strawberry yogurt, n = 29
# [14] = 35 ppm Phloretin, pomegranate juice with 150 ppm Stevia, in words
# [15] = sensory score, Pom Juice + SG95 @150 ppm + Phloretin @ 35 ppm
smiles,measurement,setting,value
"O=C(CCc1ccc(O)cc1)c1c(O)cc(O)cc1O [Phloretin, 3-(4-hydroxyphenyl)-1-(2,4,6-trihydroxyphenyl)propan-1-one]",off-note masking: bitterness,[1],reduced bitterness
same,off-note masking: licorice,[1],reduced licorice
same,off-note masking: linger,[1],reduced linger
same,own flavor of phloretin,[2],nearly no flavor on its own
same,"acidity/sourness, effect of phloretin",[3]; [8],significantly reduced
same,"astringency, effect of phloretin",[3]; [8],significantly reduced
same,"bitterness, effect of phloretin",[3]; [8],significantly reduced
same,Acidity/Sourness intensity,[3]; [9],3.27
same,Astringency intensity,[3]; [9],2.05
same,Bitterness intensity,[3]; [9],1.9
same,Mango Flavor intensity,[3]; [9],6.04
same,Off-Note intensity,[3]; [9],1.72
same,Overall Flavor intensity,[3]; [9],6.76
same,Passion Fruit Flavor intensity,[3]; [9],5.69
same,Tropical Flavor intensity,[3]; [9],6.55
same,"Sweetness, effect of phloretin",[4],unmodified
same,"aromatic stimuli (cereal), effect of phloretin",[4],unmodified
same,"bitterness, effect of phloretin",[4],unmodified
same,"score in astringency, effect of phloretin",[4],significantly reduce
same,"score in off-tastes, effect of phloretin",[4],significantly reduce
same,"tactile (mouthcoating), effect of phloretin",[4],unmodified
same,"astringency, effect of phloretin",[5]; [10],significantly reduced
same,"bitterness, effect of phloretin",[5]; [10],significantly reduced
same,Acidity,[5]; [11],2.93
same,Astringency,[5]; [11],1.21
same,Bitterness,[5]; [11],0.57
same,Long-lasting (sweet),[5]; [11],0.50
same,Off-notes,[5]; [11],1.21
same,Overall Flavor,[5]; [11],3.71
same,Sweetness,[5]; [11],2.29
same,Strawberry flavor intensity versus control,[6]; [12],higher
same,licorice taste versus control,[6]; [12],significantly lower
same,Acidity,[6]; [13],2.56
same,Fruity,[6]; [13],3.25
same,Green,[6]; [13],2.38
same,Jammy,[6]; [13],3.19
same,Licorice,[6]; [13],1.44
same,Long Lasting,[6]; [13],2.56
same,Strawberry Flavor,[6]; [13],3.56
same,Sweetness,[6]; [13],3.38
same,"Bitterness Intensity, effect of phloretin",[7]; [14],significantly reduces
same,"Pomegranate flavor intensity, effect of phloretin",[7]; [14],significantly increasing
same,"Sourness intensity, effect of phloretin",[7]; [14],significantly reduces
same,Astringent,[7]; [15],4.1
same,Berry Flv intensity,[7]; [15],6.01
same,Bitterness,[7]; [15],3.35
same,Pomegranate Flv intensity,[7]; [15],6.68
same,Sourness intensity,[7]; [15],4.75
same,Sweetness intensity,[7]; [15],5.79
